In patent publication US20230279020A9, “CARM1 INHIBITORS AND USES THEREOF” (Epizyme, Inc., priority 2013, published 2023):

Target: Human CARM1 (PRMT4) (Homo sapiens (Human), UniProt Q86X55)
Test: CARM1 enzyme assay on peptide substrate (3H-SAM Flashplate)
Conditions: Biochemical potencies, classification codes; read-out: Biochem IC50

Sequence of Human CARM1 (PRMT4) (Q86X55 other isoform, or with tags, fused parts or gaps isoform Q86X55-1): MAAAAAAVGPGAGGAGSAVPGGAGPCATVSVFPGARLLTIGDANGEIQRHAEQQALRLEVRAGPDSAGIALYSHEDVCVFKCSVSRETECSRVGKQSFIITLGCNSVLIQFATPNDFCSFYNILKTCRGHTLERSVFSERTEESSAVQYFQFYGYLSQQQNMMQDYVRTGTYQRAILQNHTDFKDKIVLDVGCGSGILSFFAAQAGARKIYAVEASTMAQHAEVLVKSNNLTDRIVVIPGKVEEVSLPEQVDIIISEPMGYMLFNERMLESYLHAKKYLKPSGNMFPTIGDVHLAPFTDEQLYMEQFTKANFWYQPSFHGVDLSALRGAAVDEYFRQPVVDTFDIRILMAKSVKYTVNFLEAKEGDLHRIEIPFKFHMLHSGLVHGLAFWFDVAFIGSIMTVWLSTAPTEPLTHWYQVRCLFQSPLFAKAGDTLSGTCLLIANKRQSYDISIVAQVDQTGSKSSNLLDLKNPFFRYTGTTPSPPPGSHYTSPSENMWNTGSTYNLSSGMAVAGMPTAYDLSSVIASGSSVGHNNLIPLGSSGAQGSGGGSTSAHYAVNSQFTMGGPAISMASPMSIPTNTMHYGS

| Structure (SMILES) | IC50 [µM] |
| --- | --- |
| CNC[C@H](O)COc1ccc(Cl)c(-c2nc(N[C@H]3CCN(C(=O)OC)C[C@H]3F)c(C)c(-c3c(C)noc3C)n2)c1 [Example 65-3] | < 0.1 |
| CNCC(O)COc1cccc(-c2nc(N[C@H]3CC[C@H](O)C3)c(C)c(-c3c(C)noc3C)n2)c1 (stereo partly drawn) [Example 135-1a] | < 0.1 |
| CNCC(O)COc1cccc(-c2nc(N(C)C3CCOCC3)cc(C3(C)CC3)n2)c1 (stereo not drawn) [Example 19-1] | < 0.1 |
| CNCC(O)COc1cccc(-c2nc(NCCCN3CCCC3=O)cc(C3=CCCC3)n2)c1 (stereo not drawn) [Example 42-1] | < 0.1 |
| CNC[C@@H](O)COc1ccc(F)c(-c2nc(-c3c(C)noc3C)c(Cl)c(N3CC4(CCOCC4)C3)n2)c1 [Example 294-3] | < 0.1 |
| CNCC(O)COc1cccc(-c2nc(-c3c(C)noc3C)c(C)c(N3CCO[C@H](CO)C3)n2)c1 (stereo partly drawn) [Example 125-1a] | < 0.1 |
| CNCC(O)COc1cc(Cl)cc(-c2nc(NC3CCN(CC(F)F)CC3)c(C)c(-c3c(C)noc3C)n2)c1 (stereo not drawn) [Example 21-3] | < 0.1 |
| CNCC(O)COc1cccc(-c2nc(NC3CCN(CC(F)F)CC3)c(C)c(-c3c(C)noc3C)n2)c1 (stereo not drawn) [Example 188-1a] | < 0.1 |
| CNCC(O)COc1cccc(-c2nc(NCCOC)cc(-c3cnn(CC(C)C)c3)n2)c1 (stereo not drawn) [Example 34-1] | < 0.1 |
| CNCC(O)COc1cccc(-c2nc(NC3C[C@@H](O)[C@H](O)C3)c(C)c(-c3c(C)noc3C)n2)c1 (stereo partly drawn) [Example 280-1a] | < 0.1 |
| CNCC(O)COc1cccc(-c2nc(N(C)C3CCOCC3)cc(N3C[C@H]4C[C@@H]3CN4)n2)c1 (stereo partly drawn) [Example 562-1a] | < 0.1 |
| CNC[C@@H](O)COc1ccc(F)c(-c2nc(-c3c(C)noc3C)c(C)c(N3Cc4cc(OC)cnc4C3)n2)c1 [Example 244-3] | < 0.1 |
| CNC[C@@H](O)COc1ccc(Cl)c(-c2nc(-c3c(C)noc3C)c(C)c(N3CCC4(CCCO4)C3)n2)c1 (stereo partly drawn) [Example 289-3] | < 0.1 |
| CNC[C@@H](O)COc1ccc(Cl)c(-c2nc(-c3c(C)noc3C)c(C)c(N3C[C@H]4COC[C@H]4C3)n2)c1 [Example 186-3] | < 0.1 |
| CNCC(O)COc1cc(Cl)cc(-c2nc(-c3ccnc(N(C)C)c3)cc(N(C)C3CCOCC3)n2)c1 (stereo not drawn) [Example 609-1a] | < 0.1 |
| CCO[C@@H]1CCC[C@H]1N(CC)c1nc(-c2cc(OC[C@H](O)CNC)ccc2Cl)nc(-c2c(C)noc2C)c1C [Example 241-3] | < 0.1 |
| CNCC(O)COc1cccc(-c2nc(NCCCN3CCCCCC3=O)cc(-c3c(C)noc3C)n2)c1 (stereo not drawn) [Example 99-1a] | < 0.1 |
| CNC[C@@H](O)COc1ccc(Cl)c(-c2nc(NC[C@H]3COCCN3C(=O)OC(C)C)c(C)c(-c3c(C)noc3C)n2)c1 [Example 134-3] | < 0.1 |
| CNCC(O)COc1cccc(-c2nc(NC3CCN(CC(F)F)C3)c(C)c(-c3c(C)noc3C)n2)c1 (stereo not drawn) [Example 195-1a] | < 0.1 |
| CNCC(O)COc1cccc(-c2nc(N[C@H]3CC[C@H](OC)C3)c(C)c(-c3c(C)noc3C)n2)c1 (stereo partly drawn) [Example 234-1a] | < 0.1 |
| CNCC(O)COc1cccc(-c2nc(N[C@H]3C[C@@](C)(OC)C3)c(C)c(-c3c(C)noc3C)n2)c1 (stereo partly drawn) [Example 19-3] | < 0.1 |
| CNC[C@H](O)COc1ccc(Cl)c(-c2nc(-c3c(C)noc3C)c(C)c(N3Cc4cc(F)cnc4C3)n2)c1 [Example 86-3] | < 0.1 |
| CNC[C@@H](O)COc1ccc(Cl)c(-c2nc(-c3c(C)noc3C)c(C)c(N3Cc4cnn(C)c4C3)n2)c1 [Example 140-3] | < 0.1 |

| Structure (SMILES) | IC50 [µM] |
| --- | --- |
| CNC[C@@H](O)COc1ccc(Cl)c(-c2nc(NC[C@H]3CCOC3)c(C)c(-c3c(C)noc3C)n2)c1 [Example 233-3] | < 0.1 |
| CNC[C@@H](O)COc1cccc(-c2nc(N[C@@H]3CCN(C4CC4)C[C@@H]3F)c(Cl)c(-c3c(C)noc3C)n2)c1 [Example 68-3] | < 0.1 |
| CCOC(=O)N1CCCCC1CNc1nc(-c2cc(OC[C@@H](O)CNC)ccc2Cl)nc(-c2c(C)noc2C)c1C (stereo partly drawn) [Example 27-3] | < 0.1 |
| CNCC(O)COc1ccc(Cl)c(-c2nc(N[C@H]3CCC[C@@H](OC)C3)c(C)c(-c3c(C)noc3C)n2)c1 (stereo partly drawn) [Example 57-3] | < 0.1 |
| CNCC(O)COc1cccc(-c2nc(-c3nc(C)c[nH]3)cc(N(C)C3CCOCC3)n2)c1 (stereo not drawn) [Example 521-1a] | < 0.1 |
| CNCC(O)COc1cccc(-c2nc(N[C@@H]3COC(=O)C3)c(C)c(-c3c(C)noc3C)n2)c1 (stereo partly drawn) [Example 268-1a] | < 0.1 |
| CNCC(O)COc1cccc(-c2nc(NC3(CO)CC3)c(C)c(-c3c(C)noc3C)n2)c1 (stereo not drawn) [Example 5-3] | < 0.1 |
| CNCC(O)COc1cccc(-c2nc(NC3(C(F)(F)F)CC3)c(C)c(-c3c(C)noc3C)n2)c1 (stereo not drawn) [Example 8-3] | < 0.1 |
| CNCC(O)COc1cccc(-c2nc(-c3c(C)noc3C)c(C)c(N3CCO[C@@H](CN(C)C)C3)n2)c1 (stereo partly drawn) [Example 148-1a] | < 0.1 |
| CNCC(O)COc1cccc(-c2nc(NC3CCOCC3)c(C)c(-c3c(C)noc3C)n2)c1 (stereo not drawn) [Example 6-1a] | < 0.1 |
| CNCC(O)COc1cccc(-c2nc(NC3CCOC3)c(C)c(N3CCN[C@@H](C)C3)n2)c1 (stereo partly drawn) [Example 351-1a] | < 0.1 |
| CNCC(O)COc1cccc(-c2nc(NCCCCl)c(C)c(N[C@@H]3CCOC3)n2)c1 (stereo partly drawn) [Example 366-1a] | < 0.1 |
| CNCC(O)COc1cccc(-c2nc(-c3cnc4c(C(=O)OC)cnn4c3)cc(N(C)C3CCOCC3)n2)c1 (stereo not drawn) [Example 482-1a] | < 0.1 |
| CNCC(O)COc1cccc(-c2nc(-c3cc4ccccc4o3)cc(N(C)C3CCOCC3)n2)c1 (stereo not drawn) [Example 570-1a] | < 0.1 |
| CNCC(O)COc1cccc(-c2nc(NCC3(O)CCOCC3)c(C)c(-c3c(C)noc3C)n2)c1 (stereo not drawn) [Example 114-1a] | < 0.1 |
| CNC[C@@H](O)COc1ccc(Cl)c(-c2nc(-c3c(C)noc3C)c(C)c(N3CCC3)n2)c1 [Example 238-3] | < 0.1 |
| CNC[C@@H](O)COc1ccc(Cl)c(-c2nc(N[C@H]3CCN(C(=O)OC)[C@@H](C)C3)c(C)c(-c3c(C)noc3C)n2)c1 [Example 169-3] | < 0.1 |
| CNCC(O)COc1cccc(-c2nc(-c3c(C)noc3C)c(C)c(N(C)CC3CCOCC3)n2)c1 (stereo not drawn) [Example 86-1a] | < 0.1 |
| CNCC(O)COc1cccc(-c2nc(-c3ccc(S(C)(=O)=O)cc3)cc(N(C)CCC#N)n2)c1 (stereo not drawn) [Example 56-1] | < 0.1 |
| CNCC(O)COc1cccc(-c2nc(N[C@@H]3CCOC3)c(C)c(N3CC[C@@H](OC)C3)n2)c1 (stereo partly drawn) [Example 369-1a] | < 0.1 |
| CNCC(O)COc1ccc(Cl)c(-c2nc(N[C@H]3CCN(C(=O)OC)C[C@H]3F)c(C)c(-c3c(C)noc3C)n2)c1 (stereo partly drawn) [Example 4-3] | < 0.1 |
| CNCC(O)COc1cccc(-c2nc(N[C@H]3CC[C@H](O)CC3)cc(-c3c(C)noc3C)n2)c1 (stereo partly drawn) [Example 32-1a] | < 0.1 |
| CNCC(O)COc1cccc(-c2nc(N[C@@H]3CCOC3)c(C)c(C3=CC(C)(C)NC(C)(C)C3)n2)c1 (stereo partly drawn) [Example 415-1a] | < 0.1 |

| Structure (SMILES) | IC50 [µM] |
| --- | --- |
| CNCC(O)COc1ccc(Cl)c(-c2nc(NCC3CCOCC3)c(C)c(-c3c(C)noc3C)n2)c1 (stereo not drawn) [Example 9-3] | < 0.1 |
| CNCC(O)COc1cccc(-c2nc(NC3CCOCC3)cc(-c3ccc(OC)c(OC)c3)n2)c1 (stereo not drawn) [Example 658-1a] | < 0.1 |
| CNCC(O)COc1cccc(-c2nc(-c3c(C)noc3C)c(C)c(N3CCn4ccnc4C3)n2)c1 (stereo not drawn) [Example 34-3] | < 0.1 |
| CNCC(O)COc1cccc(-c2nc(-c3c(C)noc3C)cc(N3CCN(CCF)[C@H](C)C3)n2)c1 (stereo partly drawn) [Example 145-1a] | < 0.1 |
| CNCC(O)COc1cccc(-c2nc(N[C@@H]3CCOC3)c(C)c(N3CCC(c4cccnc4)C3)n2)c1 (stereo partly drawn) [Example 461-1a] | < 0.1 |
| CNC[C@H](O)COc1ccc(F)c(-c2nc(NCCC(C)(C)OC)c(C)c(-c3c(C)noc3C)n2)c1 [Example 83-3] | < 0.1 |
| CNCC(O)COc1cccc(-c2nc(NCC3CCN(CC(F)F)CC3)c(C)c(-c3c(C)noc3C)n2)c1 (stereo not drawn) [Example 205-1a] | < 0.1 |
| CNCC(O)COc1ccc(Cl)c(-c2nc(NC[C@H]3COCCN3C3COC3)c(C)c(-c3c(C)noc3C)n2)c1 (stereo partly drawn) [Example 2-3] | < 0.1 |
| CNCC(O)COc1cccc(-c2nc(-c3c(C)noc3C)c(C)c(N3CCN(C(=O)OC)C(C(F)F)C3)n2)c1 (stereo not drawn) [Example 17-3] | < 0.1 |
| CCO[C@H]1CCC[C@H]1Nc1nc(-c2cc(OC[C@H](O)CNC)ccc2Cl)nc(-c2c(C)noc2C)c1C [Example 242-3] | < 0.1 |
| CNCC(O)COc1cccc(-c2nc(N[C@@H]3CCOC3)c(C)c(N3CCN(C(C)=O)[C@@H](C)C3)n2)c1 (stereo partly drawn) [Example 396-1a] | < 0.1 |
| CNC[C@H](O)COc1cccc(-c2nc(NC3CCOCC3)cc(-c3c(C)noc3C)n2)c1 [Example 17-1a] | < 0.1 |
| CNC[C@@H](O)COc1cccc(-c2nc(NC3CCN(C(=O)OC)C(C)C3)c(C)c(-c3c(C)noc3C)n2)c1 (stereo partly drawn) [Example 32-3] | < 0.1 |
| CNCC(O)COc1cccc(-c2nc(N3CCNC(=O)C3)cc(N(C)C3CCOCC3)n2)c1 (stereo not drawn) [Example 575-1a] | < 0.1 |
| CNCC(O)COc1cccc(-c2nc(-c3c(C)noc3C)c(C)c(N(C)C3CCN(C(=O)OC)CC3)n2)c1 (stereo not drawn) [Example 89-1a] | < 0.1 |
| CNCC(O)COc1cccc(-c2nc(NC3CCC3)c(C)c(-c3c(C)noc3C)n2)c1 (stereo not drawn) [Example 292-1a] | < 0.1 |
| CNCC(O)COc1cccc(-c2nc(N[C@H]3C[C@H](O)C3)cc(-c3c(C)noc3C)n2)c1 (stereo partly drawn) [Example 43-1a] | < 0.1 |
| CNCC(O)COc1cccc(-c2nc(-c3c(C)noc3C)cc(N3CCN(CCF)CC3)n2)c1 (stereo not drawn) [Example 68-1a] | < 0.1 |
| CNCC(O)COc1cccc(-c2nc(-c3c(C)noc3C)cc(N(C)C3CCOCC3)n2)c1 (stereo not drawn) [Example 1-1a] | < 0.1 |
| CNC[C@@H](O)COc1ccc(F)c(-c2nc(N[C@H]3CCN(C(=O)OC)C[C@H]3F)c(C)c(-c3c(C)noc3C)n2)c1 [Example 64-3] | < 0.1 |
| CNCC(O)COc1cccc(-c2nc(N[C@@H]3CCOC3)c(C)c(N3CCN(CC(=O)N(C)C)CC3)n2)c1 (stereo partly drawn) [Example 391-1a] | < 0.1 |
| CNC[C@@H](O)COc1ccc(Cl)c(-c2nc(-c3c(C)noc3C)c(C)c(N3CCC4(CC3)CN(C3CC3)C4)n2)c1 [Example 158-3] | < 0.1 |
| CNCC(O)COc1cc(Cl)cc(-c2nc(NC3CCN(C4CC4)CC3)c(C)c(-c3c(C)noc3C)n2)c1 (stereo not drawn) [Example 22-3] | < 0.1 |
